How the values were obtained:
[1] = test system: IL-17 production by human CD4+ T cells under Th17 differentiation; assay: Human Th17 assay (IL-17 production by CD4 T cells); type: cell-based; conditions: 72 h, IL-17 after 3 days
Excerpt: The human Th17 assay tests the effect of RORγt modulatory compounds on IL-17 production by CD4 T cells under conditions which favor Th17 differentiation. Total CD4^+ T cells were isolated from the peripheral blood mononuclear cells (PBMC) of healthy donors using a CD4^+ T cell isolation kit II, following the manufacturer's instructions (Miltenyi Biotec). Cells were resuspended in a medium of RPMI-1640 supplemented with 10% fetal bovine serum, penicillin, streptomycin, glutamate, and β-mercaptoethanol and were added to 96-well plates at 1.5×10^5 per 100 μL per well. 50 μL of compound at titrated concentrations in DMSO were added into each well at final DMSO concentration at 0.2%. Cells were incubated for 1 hour, then 50 μL of Th17 cell differentiation medium was added to each well. The final concentrations of antibodies and cytokines (R&D Systems) in differentiation medium were: 3×10^6/mL anti-CD3/CD28 beads (prepared using human T cell activation/expansion kit, Miltenyi Biotec), 10 μg/mL anti-IL4, 10 μg/mL anti-IFNγ, 10 ng/mL IL1β, 10 ng/mL IL23, 50 ng/mL IL6, 3 ng/mL TGFβ and 20 U/mL IL2. Cells were cultured at 37° C. and 5% CO2 for 3 days. Supernatants were collected and the accumulated IL-17 in culture was measured by using MULTI-SPOT® Cytokine Plate following manufacture's instruction (Meso Scale Discovery). The plate was read using Sector Imager 6000, and IL-17 concentration was extrapolated from the standard curve. The IC50s were determined by GraphPad.

[2] = molecular target: human RORγt ligand binding domain (RORγt LBD) (Homo sapiens (Human), UniProt P51449); assay: RORγt ThermoFluor assay
Chain of human RORγt ligand binding domain (RORγt LBD) (P51449 other isoform, or with tags, fused parts or gaps): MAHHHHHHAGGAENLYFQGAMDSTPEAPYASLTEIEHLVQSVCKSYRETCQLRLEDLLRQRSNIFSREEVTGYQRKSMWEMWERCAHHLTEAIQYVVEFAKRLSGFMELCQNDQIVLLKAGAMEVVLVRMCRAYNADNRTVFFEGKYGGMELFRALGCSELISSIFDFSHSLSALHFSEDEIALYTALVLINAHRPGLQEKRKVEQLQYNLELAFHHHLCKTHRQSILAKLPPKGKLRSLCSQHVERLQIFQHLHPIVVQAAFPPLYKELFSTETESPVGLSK

[3] = molecular target: full-length human RORγt (GAL4-DBD-RORγt fusion) in HEK293T cells (Homo sapiens (Human), UniProt P51449); assay: RORγt (full-length human) reporter assay, conditions A or B; type: cell-based; conditions: for IC50: HEK293T cells, read-out: RORγt (FL) Reporter Assay A or B, IC50; for inhibition at 3 µM: 3 μM compound concentration (footnote *)
Chain of full-length human RORγt (GAL4-DBD-RORγt fusion) in HEK293T cells (P51449 other isoform, or with tags, fused parts or gaps): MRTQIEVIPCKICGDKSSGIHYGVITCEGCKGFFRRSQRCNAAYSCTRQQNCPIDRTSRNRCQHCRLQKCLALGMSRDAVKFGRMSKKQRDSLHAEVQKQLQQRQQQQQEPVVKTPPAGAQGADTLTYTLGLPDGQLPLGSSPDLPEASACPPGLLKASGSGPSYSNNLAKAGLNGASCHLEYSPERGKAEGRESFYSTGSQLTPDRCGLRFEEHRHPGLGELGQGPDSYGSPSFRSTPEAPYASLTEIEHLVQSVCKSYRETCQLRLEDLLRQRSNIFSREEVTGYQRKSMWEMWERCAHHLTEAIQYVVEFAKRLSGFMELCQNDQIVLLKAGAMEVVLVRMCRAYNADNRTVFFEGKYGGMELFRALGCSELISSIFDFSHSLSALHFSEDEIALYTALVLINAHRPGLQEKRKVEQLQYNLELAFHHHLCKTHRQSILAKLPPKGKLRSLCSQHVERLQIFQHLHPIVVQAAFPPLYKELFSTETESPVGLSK
Method in brief: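 HEK293T cells expressing GAL4-DBD-RORγt fusion (96- or 384-well formats, DMEM/10% FBS) exposed to compound overnight (16–20 h). Firefly luciferase normalized to DMSO and saturating reference compound, then to Renilla; IC50 from dose curve, % inhibition versus DMSO.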

[4] = test system: Th17-dependent learned helplessness; conditions: mice; cited from earlier work
obese diabetic mice = conditions: cited from earlier work
[5] = HEK-293T, read-out: RORγt (FL) Reporter Assay A or B, % inhibition

Row | IC50 [1] [nM] | Kd [2] [nM] | IC50 [3] [nM] | inhibition at 3 µM [3, 5] [%] | Compound | other results
1 | 730 | 43 | > 2900 | 23 | CCc1cc(C[C@@H](C)C(F)(F)F)ncc1-c1c(C)c(C(=O)NC[C@H]2CC[C@H](S(C)(=O)=O)CC2)nn1CC (relative stereo) [Example 58, 1-Ethyl-5-(4-ethyl-6-((R*)-3,3,3-trifluoro-2-methylpropyl)pyridin-3-yl)-4-methyl-N-((1r,4R)-4-(methylsulfonyl)cyclohexyl)methyl)-1H-pyrazole-3-carboxamide] | –
2 | 48 | 3.2 | 14 | 98 | CCn1nc(C(=O)NC[C@]2(O)CC[C@@H](S(C)(=O)=O)CC2)c(Cl)c1-c1cnc(CC(C)(C)C(F)(F)F)cc1OC(F)F [Example 10, 4-Chloro-5-(4-(difluoromethoxy)-6-(3,3,3-trifluoro-2,2-dimethylpropyl)pyridin-3-yl)-1-ethyl-N-(((1s,4s)-1-hydroxy-4-(methylsulfonyl)cyclohexyl)methyl)-1H-pyrazole-3-carboxamide] | –
3 | – | – | – | – | CC(=O)Nc1nc(C)c(S(=O)(=O)Nc2ccc(C(O)(C(F)(F)F)C(F)(F)F)cc2)s1 [SR1001] | Th17-dependent learned helplessness [4]: reduced Th17-dependent learned helplessness
4 | – | – | – | – | CC(=O)N1CCN(Cc2ccc(-c3ccc(C(O)(C(F)(F)F)C(F)(F)F)cc3)cc2)CC1 [SR1555] | body weight (obese diabetic mice): reduced body weight; fat mass (obese diabetic mice): significant reduction in fat mass; food intake (obese diabetic mice): modest reduction in food intake; insulin sensitivity (obese diabetic mice): improved insulin sensitivity

Row | Compound | IC50 [1] [nM] | Kd [2] [nM] | IC50 [3] [nM] | inhibition at 3 µM [3, 5] [%] | other results
5 | CCn1nc(C(=O)NC[C@H]2CC[C@H](S(C)(=O)=O)CC2)c(Cl)c1-c1cnc(C[C@H](C)C(F)(F)F)cc1OC (single isomer, unassigned) [Example 62, 4-Chloro-1-ethyl-5-(4-methoxy-6-((S*)-3,3,3-trifluoro-2-methylpropyl)pyridin-3-yl)-N-((1r,4r)-4-(methylsulfonyl)cyclohexyl)methyl)-1H-pyrazole-3-carboxamide] | 81 | 17 | 180 | – | inhibition at 2 µM ([3]; HEK-293T, 2 μM compound concentration, read-out: RORγt (FL) Reporter Assay A or B, % inhibition): 89%

Reference: patent US11034658B2, “Pyridinyl pyrazoles as modulators of RORγT” (Janssen Pharmaceutica NV, priority 2018, dated 2021)
